Laboratory results taken from patent publication US20110015080A1, “Solution-based methods for RNA expression profiling” (MASSACHUSETTS INSTITUTE OF TECHNOLOGY, priority 2005, published 2011).
“And” between values parts separate entries of the source, which are not always exact repeats. Identical values can stand only once.

Tested on: HL60 (human promyelocytic leukemia) cells
Experiment: LMA-FlexMAP bead-based gene expression signature analysis of total RNA from HL60 cells treated with tretinoin or DMSO (ninety transcripts); on FlexMap GAPDH M LUA#94: test concentration or dose not given here; on FlexMap NM 000147 LUA#29: test concentration or dose not given here; on FlexMap NM 001948 LUA#84: test concentration or dose not given here
[1] = Experiment 2, Tretinoin, replicate columns

Structure (SMILES): CC1=C(/C=C/C(C)=C/C=C/C(C)=C/C(=O)O)C(C)(C)CCC1 [tretinoin, all-trans-retinoic acid]
- NM_005952 LUA#66 FlexMAP signal (Experiment 1, tretinoin-treated HL60, transcript NM_005952, replicate columns): 172 and 212 and 149 and 198.5 and 72.5 and 189 and 203 and 95.5 and 188.5 and 182
- NM_005980 LUA#73 FlexMAP signal (Experiment 1, tretinoin-treated HL60, transcript NM_005980, replicate columns): 145 and 173 and 163 (2×) and 57 and 142 and 74 and 149.5 and 151
- NM_006019 LUA#35 FlexMAP signal (Experiment 1, tretinoin-treated HL60, transcript NM_006019, replicate columns): 746 and 867 and 569 and 818 and 186 and 828 and 762 and 287 and 767 and 734.5
- NM_006138 LUA#56 FlexMAP signal (Experiment 1, tretinoin-treated HL60, transcript NM_006138, replicate columns): 114 and 130 and 93 and 124 and 51.5 and 113.5 and 115.5 and 66 and 122 and 114.5
- NM_006432 LUA#27 FlexMAP signal (Experiment 1, tretinoin-treated HL60, transcript NM_006432, replicate columns): 1294.5 and 1495 and 1081.5 and 1409.5 and 397 and 1446 and 1405 and 625 and 1345 and 1203
- NM_006452 LUA#71 FlexMAP signal (Experiment 1, tretinoin-treated HL60, transcript NM_006452, replicate columns): 78.5 and 76 and 67.5 and 79.5 and 41 and 75 and 68 and 53.5 and 82 and 74
- NM_006985 LUA#58 FlexMAP signal (Experiment 1, tretinoin-treated HL60, transcript NM_006985, replicate columns): 52 and 54 and 47 and 59 and 37 and 55 and 56 and 40 and 57 and 51
- NM_007282 LUA#16 FlexMAP signal (Experiment 1, tretinoin-treated HL60, transcript NM_007282, replicate columns): 60.5 and 60 and 39 and 64.5 (2×) and 42.5 and 64 and 62 and 56 and 61
- NM_014333 LUA#26 FlexMAP signal (Experiment 1, tretinoin-treated HL60, transcript NM_014333, replicate columns): 472 and 584 and 366.5 and 531 and 134 and 492 and 530 and 197.5 and 497 and 459.5
- NM_014366 LUA#61 FlexMAP signal (Experiment 1, tretinoin-treated HL60, transcript NM_014366, replicate columns): 213 and 263 and 163 and 235 (2×) and 66 and 231 (2×) and 97 and 209.5
- NM_014573 LUA#70 FlexMAP signal (Experiment 1, tretinoin-treated HL60, transcript NM_014573, replicate columns): 135 and 155 (2×) and 99 and 153.5 and 61 and 138 and 79 and 138.5 and 144.5
- NM_015201 LUA#57 FlexMAP signal (Experiment 1, tretinoin-treated HL60, transcript NM_015201, replicate columns): 181 and 226.5 and 139 and 222 and 64 and 208 and 203 and 87 and 194.5 and 183
- NM_018115 LUA#63 FlexMAP signal (Experiment 1, tretinoin-treated HL60, transcript NM_018115, replicate columns): 506.5 and 644 and 552.5 and 735.5 and 143 and 690 and 601 and 227.5 and 582 and 418
- NM_018164 LUA#69 FlexMAP signal (Experiment 1, tretinoin-treated HL60, transcript NM_018164, replicate columns): 140.5 and 177 and 131 and 165 and 57 and 152.5 and 155 and 75 and 143 and 142
- NM_018256 LUA#83 FlexMAP signal (Experiment 1, tretinoin-treated HL60, transcript NM_018256, replicate columns): 1557 and 747 and 897 and 726 and 388 and 903 and 998 and 589 and 1256.5 and 1208
- NM_018890 LUA#33 FlexMAP signal (Experiment 1, tretinoin-treated HL60, transcript NM_018890, replicate columns): 705 and 824 and 537.5 and 758 and 187.5 and 788 and 743.5 and 293.5 and 719 and 712
- NM_019058 LUA#75 FlexMAP signal (Experiment 1, tretinoin-treated HL60, transcript NM_019058, replicate columns): 143.5 and 158 (2×) and 143 and 164 and 59 and 152 and 79.5 and 148.5 and 129
- NM_020117 LUA#78 FlexMAP signal (Experiment 1, tretinoin-treated HL60, transcript NM_020117, replicate columns): 527 and 607 and 408 and 584.5 and 145 and 554 and 564 and 230 and 529.5 and 519
- NM_021103 LUA#41 FlexMAP signal (Experiment 1, tretinoin-treated HL60, transcript NM_021103, replicate columns): 2412 and 2719 and 2257.5 and 2689 and 925 and 2668.5 and 2611 and 1370 and 2590 and 2454
- NM_021203 LUA#80 FlexMAP signal (Experiment 1, tretinoin-treated HL60, transcript NM_021203, replicate columns): 547 and 654 and 442.5 and 642.5 and 151 and 578.5 and 611 and 228.5 and 563 and 546
- NM_021974 LUA#64 FlexMAP signal (Experiment 1, tretinoin-treated HL60, transcript NM_021974, replicate columns): 1003 and 1158 and 872 and 1105 and 293.5 and 1102.5 and 1052.5 and 477.5 and 1068 and 955
- NM_024045 LUA#65 FlexMAP signal (Experiment 1, tretinoin-treated HL60, transcript NM_024045, replicate columns): 124 and 146 and 100 and 145 and 52 and 141 and 142 and 69 and 133 and 119
- TFRC LUA#92 FlexMAP signal (Experiment 1, tretinoin-treated HL60, transcript TFRC, replicate columns): 250 and 305 and 191.5 and 285 and 81.5 and 280.5 and 289 and 109 and 272 and 251.5
- FlexMap ACTB LUA#91 [1]: 2807 and 2986 and 107 and 2939 and 1020 and 2820 and 2870 and 2791 and 2727 and 2873.5
- FlexMap GAPDH_3 LUA#95 [1]: 3075 and 2896 and 139.5 and 2850 and 1137 and 3025 and 3066 and 2936 and 2973 and 3162.5
- FlexMap GAPDH_5 LUA#93 [1]: 1888 and 1977.5 and 72 and 1965.5 and 509 and 1847 and 2001 and 1834.5 and 1691 and 1994
- FlexMap GAPDH_M LUA#94 [1]: 1814 and 1595.5 and 73 and 1871 and 514 and 1911 and 2010.5 and 1693.5 and 1762.5 and 1932.5
- FlexMap NM_000147 LUA#29 [1]: 1102 and 1135 and 36 and 1106 and 236 and 1132 and 1122.5 and 1051 and 1086 and 1171
- FlexMap NM_000211 LUA#39 [1]: 1639.5 and 1219 and 89 and 1828 and 470 and 1717 and 1734.5 and 1593.5 and 1570 and 1763
- FlexMap NM_000250 LUA#87 [1]: 236 and 228 and 39 and 249 and 70 and 246 and 243 and 232 and 239.5 and 253
- FlexMap NM_000414 LUA#22 [1]: 564.5 and 544 and 34 and 547 and 115.5 and 596 and 561.5 and 550.5 and 543 and 598.5
- FlexMap NM_000433 LUA#28 [1]: 786.5 and 574 and 34 and 810 and 158 and 860 and 842 and 753 and 724 and 823
- FlexMap NM_000584 LUA#30 [1]: 2339.5 and 2517.5 and 72 and 2315 and 665 and 2389 and 2341.5 and 2247 and 2269 and 2450
- FlexMap NM_000884 LUA#81 [1]: 963.5 and 841 and 61 and 951 and 259.5 and 1004 and 988 and 925 and 916 and 1010
- FlexMap NM_001034 LUA#67 [1]: 260 and 246 and 32.5 and 280 and 65 and 281 and 253 and 271 and 252 and 276
- FlexMap NM_001101 LUA#34 [1]: 3017 and 2733 and 211 and 3046 and 1578 and 3029 and 3195 and 2934 and 2997 and 3139.5
- FlexMap NM_001469 LUA#79 [1]: 1315 and 1107 and 73 and 1230 and 333.5 and 1437 and 1331.5 and 1308 and 1281.5 and 1360
- FlexMap NM_001498 LUA#18 [1]: 494.5 and 511 and 32 and 521 and 110.5 and 507.5 and 513 and 441.5 and 467 and 531.5
- FlexMap NM_001684 LUA#23 [1]: 71 and 75 and 30 and 98 and 38.5 and 66 and 79 and 68 and 77.5 and 83
- FlexMap NM_001948 LUA#84 [1]: 72 and 70 and 33 and 79.5 and 40 and 68 (2×) and 70.5 and 62 and 81
- FlexMap NM_002166 LUA#25 [1]: 227 and 254.5 and 30 and 237 and 60 and 230 and 240 and 221 and 242
- FlexMap NM_002467 LUA#90 [1]: 741 and 823 (2×) and 762.5 and 205 and 792 and 798 and 776 and 759
- FlexMap NM_002468 LUA#40 [1]: 531.5 and 584 and 35 and 511 and 135 and 556.5 and 549 and 498 and 494 and 589.5
- FlexMap NM_002539 LUA#74 [1]: 416 and 397 and 33 and 437 and 89 and 423 and 409 and 392 and 368 and 441
- FlexMap NM_002624 LUA#36 [1]: 1647.5 and 1643 and 71 and 1714 and 670 and 1664 and 1757 and 1580.5 and 1616 and 1772.5
- FlexMap NM_002664 LUA#38 [1]: 2701.5 and 2723 and 91 and 2815 and 1002 and 2840.5 and 2805 and 2642 and 2652 and 2875
- FlexMap NM_002970 LUA#42 [1]: 1716.5 and 1563 and 42 and 1624 and 435.5 and 1759.5 and 1743 and 1655.5 and 1575 and 1823
- FlexMap NM_002982 LUA#45 [1]: 3697 and 3859 and 294 and 3328 and 2094 and 3522 and 3632 and 3562 and 3485 and 3768
